This experiment addresses T1, GluN1/GluN2B receptors (Rattus norvegicus, UniProt P35439+Q00960).
T1 construct: expressed in transfected cells; host or cells: HEK293 cells (ATCC No. CRL-1573)
Briefly: Patch-clamp: modulation of glutamate-induced currents of recombinant GluN1/GluN2B receptors expressed in HEK293 cells. It is filed as cell-based. As to the method:
To investigate the effect of compounds 11–23 on the activity of NMDARs, electrophysiological measurements were performed on HEK293 cells that were co-transfected with cDNAs containing genes encoding for the rat GluN1-1a and GluN2B subunits. The degree of modulation (E; potentiation/inhibition) for the newly synthesized compounds was determined using the following formula: [drawing 1] where Ie is the value of the current amplitude during glutamate and compound coapplication, and Ia is the current amplitude value for glutamate application. […] The results are presented as mean ± standard error of the mean (SEM), with n equal to the number of independent measurements. One-way analysis of variance (ANOVA) was used for multiple comparisons (unless otherwise stated, a value of P ≤ 0.05 was used for the determination of significance).
We have evaluated the relationship between oxime derivatives 11–23 and their modulatory effect on recombinant GluN1/GluN2B receptors. Due to the […] effect of neurosteroid-based PAMs at NMDARs[20,44]
HEK293 cells (American Type Culture Collection, ATCC No. CRL-1573, Rockville, MD, USA) were cultured in Opti-MEM I (Invitrogen, Carlsbad, CA, USA) supplemented with 5% fetal bovine serum (FBS; PAN Biotech, Aidenbach, Germany) at 37 °C in 5% CO2. 24 h before transfection, HEK293 cells were plated in 24-well plates at a density of 2 × 10^5 cells per well. The next day, the cells were transfected with cDNA encoding rat GluN1-1a (GluN1; GenBank accession number U08261)[56] and GluN2B (GenBank accession number M91562)[57] subunits (in the pCI-neo expression vector), along with green fluorescent protein (GFP; in the pQBI 25 vector, Takara, Tokyo, Japan). Briefly, equal amounts (200 ng) of cDNAs encoding GluN1-1a, GluN2B, and GFP were mixed with 0.6 µl of Matra-A reagent (IBA, Gottingen, Germany) in 50 µL of Opti-MEM I and added to confluent HEK293 cells cultured in 24-well plates. After trypsinization, the cells were resuspended in Opti-MEM I containing 1% FBS, supplemented with 20 mM MgCl2, 1 mM D,L-2-amino-5-phosphonovaleric acid, 3 mM kynurenic acid, and 1 µM ketamine, and plated on 30 mm glass coverslips coated with collagen and poly-L-lysine. Transfected cells were identified by GFP epifluorescence. Electrophysiology experiments were performed 24–48 h after transfection.
Whole-cell current recordings, voltage-clamped at a holding potential of −60 mV, were performed at room temperature using a patch-clamp amplifier (Axopatch 200B; Molecular Devices, Sunnyvale, CA, USA) after capacitance and series resistance (<10 MΩ) compensation (80–90%). NMDAR current responses were low-pass filtered at 2 kHz, digitally sampled at 5 kHz, and analysed using pClamp software (version 10.6; Molecular Devices). Patch pipettes (3–5 MΩ), pulled from borosilicate glass, were filled with an intracellular solution (ICS) containing (in mM): 15 CsCl, 10 BAPTA, 3 MgCl2, 1 CaCl2, 120 gluconic acid, 10 HEPES, and 2 ATP-Mg salt (pH adjusted to 7.2 with CsOH). The extracellular solution (ECS) contained (in mM): 160 NaCl, 2.5 KCl, 0.2 EDTA, 10 glucose, 10 HEPES, and 0.7 CaCl2 (pH adjusted to 7.3 with NaOH). NMDAR responses were induced by 1 µM glutamate and 30 µM glycine. 1% DMSO was present in all control and testing solutions. Solution applications were performed using a microprocessor-controlled multibarrel fast-perfusion system with a solution exchange rate around the cells of ∼10 ms.[58]
A general note: The patch-clamp technique gives a direct electrical read-out from membranes.

Structures are written as SMILES.

Experimental findings from article PMC12930396, “Positive modulators of N-methyl-D-aspartate receptor: structure–activity relationship study on steroidal C-17 and C-20 oxime ethers” (RSC Advances, 2026) are described below.

Usually EC50 stands for the concentration giving half of the maximal effect. Broadly, the Emax is the greatest response seen or fitted, relative to the assay's reference.

T1 sequence (Q00960 27-1482, other chains not shown): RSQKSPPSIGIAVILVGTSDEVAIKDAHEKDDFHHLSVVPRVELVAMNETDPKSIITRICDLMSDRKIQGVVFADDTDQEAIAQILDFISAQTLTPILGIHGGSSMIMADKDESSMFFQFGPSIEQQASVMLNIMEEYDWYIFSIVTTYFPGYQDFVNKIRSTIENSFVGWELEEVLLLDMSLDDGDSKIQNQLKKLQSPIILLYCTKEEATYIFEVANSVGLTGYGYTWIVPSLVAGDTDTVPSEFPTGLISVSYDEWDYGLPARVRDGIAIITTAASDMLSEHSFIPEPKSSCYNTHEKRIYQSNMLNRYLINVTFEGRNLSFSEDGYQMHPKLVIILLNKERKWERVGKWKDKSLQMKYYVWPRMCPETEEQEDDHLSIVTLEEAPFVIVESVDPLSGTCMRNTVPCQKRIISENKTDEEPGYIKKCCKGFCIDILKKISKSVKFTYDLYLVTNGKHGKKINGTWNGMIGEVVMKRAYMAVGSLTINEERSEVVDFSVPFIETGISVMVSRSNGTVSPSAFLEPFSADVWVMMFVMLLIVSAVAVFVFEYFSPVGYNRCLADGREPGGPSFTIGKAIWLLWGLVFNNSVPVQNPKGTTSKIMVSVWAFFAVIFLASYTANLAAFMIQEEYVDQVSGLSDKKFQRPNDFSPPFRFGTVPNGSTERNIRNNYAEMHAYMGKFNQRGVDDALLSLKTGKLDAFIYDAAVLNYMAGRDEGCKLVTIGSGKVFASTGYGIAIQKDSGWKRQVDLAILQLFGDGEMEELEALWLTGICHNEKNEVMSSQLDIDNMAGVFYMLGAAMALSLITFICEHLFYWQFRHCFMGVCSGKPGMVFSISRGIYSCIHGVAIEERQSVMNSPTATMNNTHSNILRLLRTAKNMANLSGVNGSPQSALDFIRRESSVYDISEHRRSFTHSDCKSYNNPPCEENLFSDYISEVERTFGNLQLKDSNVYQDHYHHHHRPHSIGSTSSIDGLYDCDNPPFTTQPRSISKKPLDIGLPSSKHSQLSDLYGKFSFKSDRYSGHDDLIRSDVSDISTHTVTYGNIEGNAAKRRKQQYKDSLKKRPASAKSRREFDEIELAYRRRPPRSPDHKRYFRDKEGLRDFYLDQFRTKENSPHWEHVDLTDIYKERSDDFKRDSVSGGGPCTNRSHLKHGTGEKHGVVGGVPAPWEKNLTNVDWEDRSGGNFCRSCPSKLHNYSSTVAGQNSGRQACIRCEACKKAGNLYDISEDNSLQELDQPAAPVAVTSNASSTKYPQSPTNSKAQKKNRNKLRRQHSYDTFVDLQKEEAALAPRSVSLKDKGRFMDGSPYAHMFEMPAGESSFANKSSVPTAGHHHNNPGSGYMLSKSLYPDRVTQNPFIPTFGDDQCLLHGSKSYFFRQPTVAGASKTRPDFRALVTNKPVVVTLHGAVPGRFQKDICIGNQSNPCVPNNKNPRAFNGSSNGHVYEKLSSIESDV

In the case of `CCON=C(C)C1CCC2C3CC=C4CC(OC(=O)CCCC(=O)O)CCC4(C)C3CCC12C` (stereo not drawn) [Compound 12, 20-Oxo-pregn-5-en-3β-yl hemiglutarate O-ethyloxime], the “Efficacy relative to PES” value (Emax compared with PES) is “over 6 fold”. For the same molecule, the “h ± SEM (apparent Hill coefficient)” value (concentration-response fit, mean ± SEM) was found to be 1.7 ± 0.3. Further, where the note is “half-maximal potentiation of currents evoked by 1 µM glutamate, HEK293, mean ± SEM”, the EC50 amounted to 8.7 ± 1.1 µM. Besides, the Emax (maximal potentiation of currents evoked by 1 µM glutamate and 30 µM glycine, HEK293, mean ± SEM) came to 673 ± 121%.
